Laboratory results from the NIST ThermoML archive (doi:10.1021/je7007654).
Numbers after ± are expanded uncertainties.

What was measured:
[1] = 101 kPa, Liquid; for viscosity: Capillary tube (Ostwald / Ubbelohde) method; for speed of sound: Sing-around technique in a fixed-path interferometer
[2] = xn = mol fraction of the nth substance listed; conditions: 101 kPa, Liquid, x1 = 1; for viscosity: Capillary tube (Ostwald / Ubbelohde) method; for speed of sound: Sing-around technique in a fixed-path interferometer
[3] = 298.15 K, Vibrating tube method
[4] = 303.15 K, Vibrating tube method
[5] = 308.15 K, Vibrating tube method

Compound	mass density ([1]; 298.15 K) [kg/m3]	viscosity ([1]; 298.15 K) [mPa·s]	speed of sound ([1]; 298.15 K) [m/s]	mass density ([1]; 303.15 K) [kg/m3]	viscosity ([1]; 303.15 K) [mPa·s]	speed of sound ([1]; 303.15 K) [m/s]	mass density ([1]; 308.15 K) [kg/m3]	viscosity ([1]; 308.15 K) [mPa·s]	speed of sound ([1]; 308.15 K) [m/s]	viscosity ([2]; 298.15 K) [mPa·s]	speed of sound ([2]; 298.15 K) [m/s]	viscosity ([2]; 303.15 K) [mPa·s]	speed of sound ([2]; 303.15 K) [m/s]	viscosity ([2]; 308.15 K) [mPa·s]	speed of sound ([2]; 308.15 K) [m/s]	also measured
CCCCCCCCCCCCCCCC [hexadecane]	770.456 ± 0.84	3.041 ± 0.023	1338.6 ± 1.2	766.981 ± 0.85	2.706 ± 0.02	1320 ± 1.2	763.52 ± 0.86	2.409 ± 0.018	1301.7 ± 1.2							
CCCCO [butan-1-ol]	805.907 ± 0.67	2.573 ± 0.016	1240.5 ± 0.8	803.155 ± 0.68	2.275 ± 0.014	1226.5 ± 0.8	799.249 ± 0.69	1.981 ± 0.013	1209.8 ± 0.8							
CC(C)CCCC(C)CCCC(C)CCCCC(C)CCCC(C)CCCC(C)C (stereo not given) [2,6,10,15,19,23-hexamethyltetracosane]		28.26 ± 0.18	1381.9 ± 1.2		22.09 ± 0.14	1364.1 ± 1.2		17.77 ± 0.12	1346.5 ± 1.2							mass density [1, 3]: 805.122 ± 0.23 kg/m3; mass density [1, 4]: 801.912 ± 0.24 kg/m3; mass density [1, 5]: 798.709 ± 0.24 kg/m3
CCCCO [butan-1-ol] + CC(C)CCCC(C)CCCC(C)CCCCC(C)CCCC(C)CCCC(C)C										2.573 ± 0.016	1240.5 ± 0.8	2.275 ± 0.014	1226.5 ± 0.8	1.981 ± 0.013	1209.8 ± 0.8	mass density [2, 3]: 805.907 ± 0.14 kg/m3; mass density [2, 4]: 803.155 ± 0.14 kg/m3; mass density [2, 5]: 799.249 ± 0.14 kg/m3
CCCCO [butan-1-ol] + CCCCCCCCCCCCCCCC										2.573 ± 0.016	1240.5 ± 0.8	2.275 ± 0.014	1226.5 ± 0.8	1.981 ± 0.013	1209.8 ± 0.8	mass density ([2]; 298.15 K): 805.907 ± 0.67 kg/m3; mass density ([2]; 303.15 K): 803.155 ± 0.68 kg/m3; mass density ([2]; 308.15 K): 799.249 ± 0.69 kg/m3
